Experimental data published in ChEMBL document CHEMBL3872220, “Amphiphilic xanthones as a potent chemical entity of anti-mycobacterial agents with membrane-targeting properties” (Eur J Med Chem, 2016).
Values after ≈ are worked out from the molar mass of the structure shown.

Legend:
[1] = system: Mycobacterium tuberculosis variant bovis; test: Antimycobacterial activity against Mycobacterium bovis BCG ATCC 35734 after 5 days by broth dilution assay; format: functional; conditions: ATCC 35734, 120 h
[2] = system: Mycobacterium tuberculosis variant bovis; test: Bactericidal activity against Mycobacterium bovis BCG ATCC 35734 assessed as log reduction in bacterial colonies up to 8 times MIC measured after 24 hrs by time-kill assay; format: functional, Mycobacterium tuberculosis variant bovis BCG

## CN[C@@H]1[C@H](O[C@H]2[C@H](O[C@H]3[C@H](O)[C@@H](O)[C@H](N=C(N)N)[C@@H](O)[C@@H]3N=C(N)N)O[C@@H](C)[C@]2(O)C=O)O[C@@H](CO)[C@H](O)[C@H]1O [STREPTOMYCIN]
[1]
  MIC90: 0.39 µM (≈ 0.227 µg/mL)

## COc1c(OCC(=O)NC(CCCNC(=N)N)C(N)=O)cc2oc3cc(OCC(=O)NC(CCCNC(=N)N)C(N)=O)c(CC=C(C)C)c(O)c3c(=O)c2c1CC=C(C)C (centres undefined)
[1]
  MIC90: > 30 µM

## CC[C@@H](CO)NCCN[C@@H](CC)CO [ETHAMBUTOL]
[1]
  MIC90: 6.25 µM (≈ 1.28 µg/mL)

## COc1c(OCC(O)CNCCNC(=N)N)cc2oc3cc(OCC(O)CNCCNC(=N)N)c(CC=C(C)C)c(O)c3c(=O)c2c1CC=C(C)C (centres undefined)
[1]
  MIC90: > 30 µM

## CCN(CC)CCCCOc1ccc2c(=O)c3c(O)cc(OCCCCN(CC)CC)cc3oc2c1
[1]
  MIC90: > 30 µM

## COc1c(OCCCCN2CCOCC2)cc2oc3cc(OCCCCN4CCOCC4)c(CC=C(C)C)c(OCCCCN4CCOCC4)c3c(=O)c2c1CC=C(C)C
[1]
  MIC90: 12.8 µM (≈ 10.7 µg/mL)

## CCCN(CCC)CC(O)COc1cc2oc3cc(OCC(O)CN(CCC)CCC)c(OC)c(CC=C(C)C)c3c(=O)c2c(O)c1CC=C(C)C (centres undefined)
[1]
  MIC90: 6.4 µM (≈ 4.64 µg/mL)

## NNC(=O)c1ccncc1 [ISONIAZID]
[1]
  MIC90: 6.25 µM (≈ 0.857 µg/mL)
[2]
  Activity: 2.6

## COc1c(OCCCCN(C)C)cc2oc3cc(OCCCCN(C)C)c(CCC(C)C)c(O)c3c(=O)c2c1CCC(C)C
[1]
  MIC90: 6.4 µM (≈ 3.92 µg/mL)

## COc1c(OCC(O)CNC(CO)(CO)CO)cc2oc3cc(OCC(O)CNC(CO)(CO)CO)c(CC=C(C)C)c(O)c3c(=O)c2c1CC=C(C)C (centres undefined)
[1]
  MIC90: > 30 µM

## CCN(CC)CCOc1cc2oc3cc(OCCN(CC)CC)c(OC)c(CC=C(C)C)c3c(=O)c2c(O)c1CC=C(C)C
[1]
  MIC90: 6.4 µM (≈ 3.9 µg/mL)

## CCCCN(CC)CCCCOc1cc2oc3cc(OCCCCN(CC)CCCC)c(OC)c(CC=C(C)C)c3c(=O)c2c(O)c1CC=C(C)C
[1]
  MIC90: 3.2 µM (≈ 2.31 µg/mL)

## COc1c(OCC(O)CNCCNCCNCCN)cc2oc3cc(OCC(O)CNCCNCCNCCN)c(CC=C(C)C)c(O)c3c(=O)c2c1CC=C(C)C (centres undefined)
[1]
  MIC90: > 30 µM

## CCN(CC)CCCCOc1cc2oc3cc(OCCCCN(CC)CC)c(OC)c(CCC(C)C)c3c(=O)c2c(O)c1CCC(C)C
[1]
  MIC90: 6.4 µM (≈ 4.28 µg/mL)

## COC(=O)C(Cc1cnc[nH]1)NC(=O)COc1cc2oc3cc(OCC(=O)NC(Cc4cnc[nH]4)C(=O)OC)c(OC)c(CC=C(C)C)c3c(=O)c2c(O)c1CC=C(C)C (centres undefined)
[1]
  MIC90: > 30 µM

## CCN(CC)CC(O)COc1cc2oc3cc(OCC(O)CN(CC)CC)c(OC)c(CC=C(C)C)c3c(=O)c2c(O)c1CC=C(C)C (centres undefined)
[1]
  MIC90: 6.4 µM (≈ 4.28 µg/mL)

## COc1c(OCC(O)CNCCN)cc2oc3cc(OCC(O)CNCCN)c(CC=C(C)C)c(O)c3c(=O)c2c1CC=C(C)C (centres undefined)
[1]
  MIC90: > 30 µM

## CCN(CC)CCCOc1cc2oc3cc(OCCCN(CC)CC)c(OC)c(CC=C(C)C)c3c(=O)c2c(O)c1CC=C(C)C
[1]
  MIC90: 6.4 µM (≈ 4.08 µg/mL)

## COC(=O)C(CCCNC(=N)N)NC(=O)COc1cc2oc3cc(OCC(=O)NC(CCCNC(=N)N)C(=O)OC)c(OC)c(CC=C(C)C)c3c(=O)c2c(O)c1CC=C(C)C (centres undefined)
[1]
  MIC90: 12.8 µM (≈ 11.1 µg/mL)

## CO[C@H]1/C=C/O[C@@]2(C)Oc3c(C)c(O)c4c(O)c(c(/C=N/N5CCN(C)CC5)c(O)c4c3C2=O)NC(=O)/C(C)=C\C=C\[C@H](C)[C@H](O)[C@@H](C)[C@@H](O)[C@@H](C)[C@H](OC(C)=O)[C@@H]1C [RIFAMPIN]
[1]
  MIC90: 0.02 µM (≈ 0.0165 µg/mL)

## CCN(CC)CCCCOc1cc2oc3cc(OCCCCN(CC)CC)c(OC)c(CC=C(C)C)c3c(=O)c2c(OCCCCN(CC)CC)c1CC=C(C)C
[1]
  MIC90: 6.4 µM (≈ 5.07 µg/mL)

## COc1c(OCCCCN2CCSCC2)cc2oc3cc(OCCCCN4CCSCC4)c(CC=C(C)C)c(O)c3c(=O)c2c1CC=C(C)C
[1]
  MIC90: 30 µM (≈ 21.8 µg/mL)

## CCN(CC)CCCCCCCOc1cc2oc3cc(OCCCCCCCN(CC)CC)c(OC)c(CC=C(C)C)c3c(=O)c2c(O)c1CC=C(C)C
[1]
  MIC90: 6.4 µM (≈ 4.79 µg/mL)
